Source: publication PMC8556396, “Statin-mediated disruption of Rho GTPase prenylation and activity inhibits respiratory syncytial virus infection” (Communications Biology, 2021)
Values joined by “and” are separate entries in the source; they are usually repeats but may differ in a detail not shown here. Identical values can stand only once. “Also recorded” adds a separate entry of the source.

Columns and labels:
RSV A2 = assay: Immunofluorescence staining and microscopy of RSV F and N; settings: mevalonolactone 1 mM with atorvastatin 3.5 µM or simvastatin 1.5 µM
RSV-GFP [1] = assay: RSV-GFP infection of HEp-2 cells, automated imaging, dose-response; assay type: cell-based, Respiratory syncytial virus; settings: for EC50: HEp-2, 2 h, HEp-2, RSV-GFP MOI 0.5, treated 2 h post-viral exposure; for inhibition at 0.75 µM: read-out: RSV-GFP inhibition (%), log Conc (uM) -0.12494; for inhibition at 0.5 µM: read-out: RSV-GFP inhibition (%), log Conc (uM) -0.30103; for inhibition at 0.05 µM: read-out: RSV-GFP inhibition (%), log Conc (uM) -1.30103; for RSV-GFP inhibition (%): 48 h p.i.; for inhibition at 0.25 µM: read-out: RSV-GFP inhibition (%), log Conc (uM) -0.60206; for inhibition at 0.1 µM: read-out: RSV-GFP inhibition (%), log Conc (uM) -1; for inhibition at 0.01 µM: read-out: RSV-GFP inhibition (%), log Conc (uM) -2
Procedure: HEp-2 cells were seeded to black, flat, microclear-bottom 96-well plates (655096, Greiner Bio-One) at a density of 5000 cells per well and incubated at 37 °C/5% CO2 overnight. The following morning, cells were washed twice with serum-free EMEM and treated with RSV-GFP (MOI 0.5) in a minimal volume of serum-free media for 90 min under frequent agitation. Unbound virus was then removed and replaced with fresh serum-containing EMEM. All drug additions were performed 2 h post-viral exposure, unless otherwise stated. Nuclei were stained with Hoechst 33342 (H3570, Thermo Fisher Scientific) (at a final concentration of 1 µg/mL) 48 h p.i. and imaging was performed using the Cellomics ArrayScan VTI HCS Reader at ×10 magnification (SPARC BioCentre, The Hospital for Sick Children, Toronto, ON).
Automated quantification of infection rates from fluorescent images were performed in CellProfiler (v2.2.0)[86]. Major steps in the image analysis pipeline included: (1) background subtraction and smoothing, (2) segmentation of nuclei, (3) segmentation of GFP-fluorescent area, (4) object masking, and (5) measurement of nuclear number, size, and intensity. Infection rate was quantified from the ratio of nuclei within GFP-fluorescent area to the total number of nuclei (Fig. 1b). This method of analysis accounts for in vitro syncytium formation induced by RSV, whereby a single infected cell may arise from the fusion of multiple cells. Mean nuclear fluorescent intensity and size was quantified as a measure of cell viability. […]

RSV-GFP [2] = assay: microbe, parasite or virus in culture; assay type: cell-based, Respiratory syncytial virus; settings: human respiratory syncytial virus, HEp-2, read-out: RSV-GFP inhibition (%)
Procedure: The following morning, cells were washed twice with serum-free EMEM and treated with RSV-GFP (MOI 0.5) in a minimal volume of serum-free media for 90 min under frequent agitation. Unbound virus was then removed and replaced with fresh serum-containing EMEM. All drug additions were performed 2 h post-viral exposure, unless otherwise stated.
Automated quantification of infection rates from fluorescent images were performed in CellProfiler (v2.2.0)[86]. Major steps in the image analysis pipeline included: (1) background subtraction and smoothing, (2) segmentation of nuclei, (3) segmentation of GFP-fluorescent area, (4) object masking, and (5) measurement of nuclear number, size, and intensity. Infection rate was quantified from the ratio of nuclei within GFP-fluorescent area to the total number of nuclei (Fig. 1b). This method of analysis accounts for in vitro syncytium formation induced by RSV, whereby a single infected cell may arise from the fusion of multiple cells. Mean nuclear fluorescent intensity and size was quantified as a measure of cell viability.
The MicroSource […] Collection (Discovery Systems Inc.) consisting of 2400 compounds was screened using the previously outlined RSV-GFP infection assay protocol. Robot-assisted addition of drugs was performed within 1 h of RSV-GFP infection and infection rates were assayed 48 h p.i. Drugs were provided as 10 mM stocks in DMSO and serial diluted to a final concentration of 10 µM, resulting in a final DMSO concentration of 0.1% v/v. […] Hits were selected based on the criteria that: (a) the tested drug caused a >50% reduction in infection rate and (b) was not overtly cytotoxic (<10% change in mean nuclear intensity relative to DMSO control). Z-factors were calculated on a per-plate basis to monitor assay quality.

[3] = human respiratory syncytial virus
[4] = human respiratory syncytial virus, HEp-2, 48 h, replicate values

| SMILES | EC50 (RSV-GFP [1]; [3]) | inhibition at 0.75 µM (RSV-GFP [1]; [4]) | inhibition at 0.5 µM (RSV-GFP [1]; [4]) | inhibition at 0.05 µM (RSV-GFP [1]; [4]) | inhibition at 10 µM (RSV-GFP [2]) | inhibition at 0.25 µM (RSV-GFP [1]; [4]) | inhibition at 0.1 µM (RSV-GFP [1]; [4]) | inhibition at 0.01 µM (RSV-GFP [1]; [4]) | other results |
| --- | --- | --- | --- | --- | --- | --- | --- | --- | --- |
| CC1(O)CCOC(=O)C1 (racemic) [Mevalonolactone, DL-mevalonolactone] | – | – | – | – | – | – | – | – | effect of mevalonolactone co-treatment in statin-treated cells (RSV A2): restore viral protein intensity to DMSO (0.1% v/v) baseline |
| O=c1cc(-c2ccccc2)oc2ccc(O)cc12 [6-Hydroxyflavone] | 705 nM | 56.1% | 36.6% | 11.4% | 74.1% | – | – | – | – |
| CNc1nc(C)c(-c2nc(Nc3cccc(S(N)(=O)=O)c3)ncc2F)s1 [CDKI-73] | – | – | – | – | – | – | – | – | effect on RSV-GFP infection rate (RSV-GFP [1]; CDKI-73 0.5 µM or 1.0 µM): did not reduce infection rate; also recorded: did not reduce RSV-GFP infection rates; RSV-GFP inhibition (%) (RSV-GFP [1]; CDKI-73 0.5 uM, replicate values): 15.9529% and 3.2849% and 2.901% and 0.6729%; RSV-GFP inhibition (%) (RSV-GFP [1]; CDKI-73 1 uM, replicate values): 5.404% and 7.553% and -1.2228% and 1.11% |
| C[C@H]1O[C@@H](O[C@H]2[C@@H](O)C[C@H](O[C@H]3[C@@H](O)C[C@H](O[C@H]4CC[C@@]5(C)[C@H](CC[C@@H]6[C@@H]5CC[C@]5(C)[C@@H](C7=CC(=O)OC7)CC[C@]65O)C4)O[C@@H]3C)O[C@@H]2C)C[C@H](O)[C@@H]1O [Digitoxin] | 11 nM | – | 99.9% | 73% | 98.8% | 98.6% | 78.3% | 55% | inhibition at […] (RSV-GFP [1]; human respiratory syncytial virus, HEp-2, 48 h, read-out: RSV-GFP inhibition (%), log Conc (uM) -0.75696, replicate values): 99.8%; inhibition at 0.04 µM (RSV-GFP [1]; human respiratory syncytial virus, HEp-2, 48 h, read-out: RSV-GFP inhibition (%), log Conc (uM) -1.39794, replicate values): 78.7%; inhibition at 0.03 µM (RSV-GFP [1]; human respiratory syncytial virus, HEp-2, 48 h, read-out: RSV-GFP inhibition (%), log Conc (uM) -1.52288, replicate values): 82%; inhibition at 0.02 µM (RSV-GFP [1]; human respiratory syncytial virus, HEp-2, 48 h, read-out: RSV-GFP inhibition (%), log Conc (uM) -1.69897, replicate values): 68.5% |
| C[C@H]1O[C@@H](O[C@H]2[C@@H](O)C[C@H](O[C@H]3[C@@H](O)C[C@H](O[C@H]4CC[C@@]5(C)[C@H](CC[C@@H]6[C@@H]5C[C@@H](O)[C@]5(C)[C@@H](C7=CC(=O)OC7)CC[C@]65O)C4)O[C@@H]3C)O[C@@H]2C)C[C@H](O)[C@@H]1O [Digoxin] | 26 nM | 99.9% | 100% | 68.3% | 99.1% | 86.5% | 85.5% | 25.2% | inhibition at 0.0075 µM (RSV-GFP [1]; human respiratory syncytial virus, HEp-2, 48 h, read-out: RSV-GFP inhibition (%), log Conc (uM) -2.12494, replicate values): 18%; inhibition at 0.001 µM (RSV-GFP [1]; human respiratory syncytial virus, HEp-2, 48 h, read-out: RSV-GFP inhibition (%), log Conc (uM) -3, replicate values): 9.48% |
| C[C@]12CC[C@@H]3c4ccc(O)cc4CC[C@H]3[C@@H]1CC[C@@H]2O [Estradiol, 17β-Estradiol] | 1620 nM | – | 7.41% | – | 70.7% | – | – | – | – |
